Source: ChEMBL document CHEMBL4038293, “Synthesis and SAR studies of 3,6-disubstituted indazole derivatives as potent hepcidin production inhibitors” (Bioorg Med Chem Lett, 2017)
Active and inactive are the calls of the source. The calls are words filed in the database; no cut-off is given here.

Species on record: Homo sapiens
Experiment: Inhibition of BMP6/hemojuvelin signalling pathway in human HepG2 cells assessed as reduction in hepcidin mRNA expression at 30 uM
Type: cell-based
Settings: not given

Point of comparison: O=C(Nc1n[nH]c2cccc(-c3ccccc3)c12)C1CC1, inhibition 8%. Against it:
- O=C(Nc1n[nH]c2cc(-c3ccccc3)ccc12)C1CC1 — higher, 23%
- O=C(Nc1n[nH]c2ccc(-c3ccccc3)cc12)C1CC1 — lower, -4%

System: Mus musculus
Experiment: Anti-inflammatory activity in C57BL/6J mouse assessed as reduction in IL-6 induced serum hepcidin level at 30 mg/kg, ip pretreated for 30 mins followed by IL-6 challenge measured after 4 hrs
Type: functional, organism-based
Settings: not given

In the case of O=C(Nc1n[nH]c2cc(-c3ccc(O)cc3)ccc12)c1ccc(OCCN2CCOCC2)cc1, the Activity is reported as “Active”.

System: not listed separately
Experiment: Lipophilicity, log D of the compound
Type: physicochemical
Settings: octanol/water

O=C(Nc1n[nH]c2cc(-c3ccc(O)cc3)ccc12)c1ccc(OCCN2CCOCC2)cc1 showed a logD of 3.4.

System: not listed separately
Experiment: Inhibition of BMP6/hemojuvelin signalling pathway in human HepG2 cells assessed as reduction in hepcidin mRNA expression
Type: cell-based
Settings: not given

Point of comparison: O=C(Nc1n[nH]c2cc(-c3ccc(O)cc3)ccc12)C1CCCCC1, IC50 930 nM. Against it:
- COC(=O)c1ccc(C(=O)Nc2n[nH]c3cc(-c4ccc(O)cc4)ccc23)cc1 — within 1.5-fold, 1100 nM
- O=C(Nc1n[nH]c2cc(-c3ccc(O)cc3)ccc12)C1CC1 — 2.3-fold lower, 400 nM
- CN(C)c1ccc(C(=O)Nc2n[nH]c3cc(-c4ccc(O)cc4)ccc23)cc1 — 2.8-fold lower, 330 nM
- CN(C)CCOc1ccc(C(=O)Nc2n[nH]c3cc(-c4ccc(O)cc4)ccc23)cc1 — 5.8-fold lower, 160 nM
- Nc1n[nH]c2cc(-c3ccc(O)cc3)ccc12 — within 1.5-fold, 1000 nM
- O=C(Nc1n[nH]c2cc(-c3ccc(O)cc3)ccc12)NC1CC1 — within 1.5-fold, 940 nM
- CC(=O)Nc1n[nH]c2cc(-c3ccc(O)cc3)ccc12 — within 1.5-fold, 1100 nM
- O=C(Nc1n[nH]c2cc(-c3ccc(O)cc3)ccc12)c1ccc(Cl)cc1 — within 1.5-fold, 980 nM
- COc1ccccc1C(=O)Nc1n[nH]c2cc(-c3ccc(O)cc3)ccc12 — higher, > 30000 nM
- COc1cccc(C(=O)Nc2n[nH]c3cc(-c4ccc(O)cc4)ccc23)c1 — within 1.5-fold, 700 nM
- COc1ccc(C(=O)Nc2n[nH]c3cc(-c4ccc(O)cc4)ccc23)cc1 — 2.2-fold lower, 420 nM
- CN1CCN(c2ccc(C(=O)Nc3n[nH]c4cc(-c5ccc(O)cc5)ccc34)cc2)CC1 — 11-fold lower, 85 nM
- O=C(Nc1n[nH]c2cc(C3=CCC(O)CC3)ccc12)C1CC1 (centres undefined) — higher, > 30000 nM
- O=C(Nc1n[nH]c2cc(-c3ccc(O)cc3)ccc12)c1ccccc1 — 2-fold lower, 470 nM
- O=C(Nc1n[nH]c2cc(-c3ccc(O)cc3)ccc12)c1ccc(OCCN2CCOCC2)cc1 — 7.2-fold lower, 130 nM
- O=C(Nc1n[nH]c2ccc(-c3ccc4c(c3)CNC4)cc12)C1CC1 — 3.3-fold higher, 3100 nM
- O=C(O)c1ccc(-c2ccc3c(NC(=O)C4CC4)n[nH]c3c2)cc1 — higher, > 10000 nM
- O=C(Nc1n[nH]c2cc(-c3ccc(O)cc3)ccc12)c1ccc(OCCN2CCCCC2)cc1 — 7.8-fold lower, 120 nM
- Oc1ccc(-c2ccc3cn[nH]c3c2)cc1 — higher, > 3000 nM
- Nc1ccc(-c2ccc3c(NC(=O)C4CC4)n[nH]c3c2)cc1 — 4.8-fold higher, 4500 nM
- O=C(Nc1n[nH]c2cc(Cc3ccc(O)cc3)ccc12)C1CC1 — higher, > 30000 nM
- CS(=O)(=O)Nc1ccc(-c2ccc3c(NC(=O)C4CC4)n[nH]c3c2)cc1 — higher, > 30000 nM
- Oc1ccc(-c2ccc3c(NCC4CC4)n[nH]c3c2)cc1 — 1.7-fold higher, 1600 nM
- O=C(Nc1n[nH]c2cc(-c3ccccc3O)ccc12)C1CC1 — higher, > 30000 nM
- O=S(=O)(Nc1n[nH]c2cc(-c3ccc(O)cc3)ccc12)C1CC1 — higher, > 10000 nM
- O=C(NC1CC1)c1n[nH]c2cc(-c3ccc(O)cc3)ccc12 — 4.5-fold higher, 4200 nM
- O=C(Nc1n[nH]c2cc(-c3cccc(O)c3)ccc12)C1CC1 — 5.3-fold higher, 4900 nM
- O=C(Nc1n[nH]c2cc(-c3ccc(CO)cc3)ccc12)C1CC1 — 1.5-fold higher, 1400 nM
- O=C(Nc1[nH]nc2cc(-c3ccc(O)nc3)ccc12)C1CC1 — higher, > 30000 nM

System: not listed separately
Experiment: Tmax in C57BL/6J mouse at 30 mg/kg, ip
Type: ADME, organism-based
Settings: in vivo

For O=C(Nc1n[nH]c2cc(-c3ccc(O)cc3)ccc12)c1ccc(OCCN2CCOCC2)cc1, the Tmax was 1.33 h.

System: not listed separately
Experiment: Cmax in C57BL/6J mouse at 30 mg/kg, ip
Type: ADME, organism-based
Design: dose 30 mg/kg, route intraperitoneal
Settings: in vivo

O=C(Nc1n[nH]c2cc(-c3ccc(O)cc3)ccc12)c1ccc(OCCN2CCOCC2)cc1 showed a Cmax of 2640 ng/mL.

System: not listed separately
Experiment: Metabolic stability in mouse liver microsomes assessed as compound remaining at 0.5 mg/mL after 0.5 hrs
Type: ADME, microsome
Settings: read-out: Stability

With O=C(Nc1n[nH]c2cc(-c3ccc(O)cc3)ccc12)c1ccc(OCCN2CCOCC2)cc1 the remaining at 0.5 h was 89%.

System: not listed separately
Experiment: AUC in C57BL/6J mouse at 30 mg/kg, ip
Type: ADME, organism-based
Settings: in vivo

O=C(Nc1n[nH]c2cc(-c3ccc(O)cc3)ccc12)c1ccc(OCCN2CCOCC2)cc1 showed an AUC of 6930 ng·h/mL.
